Assay [1] relates to MM.1S cells (myeloma cells). The assay can be described thus: Cell proliferation assay (MTS), MM.1S myeloma cells. The assay is classed as cell-based. The note with it: Homo sapiens, MM1.S, 72 hours, read-out: IC50 values of MMIS Inhibition. The protocol:
MM.1S cells (myeloma cells) (ATCC, catalog number CRL-2974) were seeded at 1.8×10^3 per well to a 96-well culture plate containing […] (Gibco, catalog number A10491-01), and were incubated in an incubator for 24 hours at 37° C. under 5% CO2. Compounds were prepared as 20 mM stock solutions with DMSO (Sigma, catalog number D2650), and were diluted with the medium to the desired concentration (the final concentration of DMSO was 0.5%) and then were added to each well, incubated in an incubator for 72 hours at 37° C. under 5% CO2. Then, 20 μL MTS (Promega, catalog number G3581) was added to each well, and further incubated for 1-4 hours in an incubator at 37° C. under 5% CO2. OD490 nm was detected with OD650 nm as reference. The control, a solution containing 0.5% DMSO medium, was as 0% inhibition. GraphPad Prism 5 was used, slope was allowed to change to make the dose-effect curve and IC50 values were calculated, shown in table 2 for details.

The subject of another assay is TNF-α. The assay can be described thus: TNF-α activity inhibiting assay (LPS-stimulated peripheral blood, ELISA). Format: cell-based, human. As to conditions: Homo sapiens, compound 100 nM, diluted peripheral blood of healthy volunteers, LPS 10 ng/mL, 6 hours, read-out: Inhibitory Rate on TNF-α (%). The protocol: TNF-α Activity Inhibiting Assay
Peripheral blood from healthy volunteers was collected and collected with EDTA anticoagulant tubes. After being diluted 5-fold with 1640 medium (Gibco, catalog number 11875-093, USA), the blood was added to 96-well cell culture plates (Costar, catalog number 3599, USA) and then treated with 10 μL solution of the compound of general formula (I) of the present invention in DMSO (Sigma, catalog number D2650, USA). The final concentration of the compound was 100 nM, and the final concentration of DMSO was 0.2%. After incubation for 60 minutes in an incubator at 37° C. under 5% CO2, 10 μL LPS (Sigma, catalog number L-2880, USA) was added to the reaction system, and the final concentration was 10 ng/mL. After further culturing for 6 hours in the incubator at 37° C. under 5% CO2, the supernatant was collected. The content of TNF-α was determined by ELISA (BD Biosciences, catalog number 555212, USA). Absorbance was detected at OD450 nm with a microplate reader, with OD 650 nm as reference. The control, a solution containing 0.2% DMSO medium, was as 0% inhibition. Raw data and standard curves were recorded. The four-parameter drug inhibition curve was plotted by XL-fit software and the inhibition rate of each compound was calculated, as shown in Table 1.

Some results are limits rather than exact numbers.

On to `COc1ccc(CNc2cccc3c2CN(C2CCC(=O)NC2=O)C3=O)cc1OC` (centres unmarked) [Compound A349, 3-(4-((3,4-dimethoxybenzyl)amino)-1-oxoisoindolin-2-yl)piperidine-2,6-dione], for which the IC50 in assay [1] was at least 0.3 µM. Further, the inhibition at 0.1 µM with TNF-α was under 50%.

Take `Cc1ccc(CNc2cccc3c2CN(C2CCC(=O)NC2=O)C3=O)cc1C` (centres unmarked) [Compound A350, 3-(4-((3,4-dimethylbenzyl)amino)-1-oxoisoindolin-2-yl)piperidine-2,6-dione]: the IC50 in assay [1] is under 0.3 µM. Moreover, the inhibition at 0.1 µM in the assay with TNF-α was under 50%.

For `Cc1cc(CNc2cccc3c2CN(C2CCC(=O)NC2=O)C3=O)ccc1F` (centres unmarked) [Compound A351, 3-(4-((4-fluoro-3-methylbenzyl)amino)-1-oxoisoindolin-2-yl)piperidine-2,6-dione], the IC50 in assay [1] was under 0.3 µM. For the same compound, the inhibition at 0.1 µM in the assay with TNF-α is under 50%.

As for `Cc1ccc(CNc2cccc3c2CN(C2CCC(=O)NC2=O)C3=O)cc1Cl` (centres unmarked) [Compound A352, 3-(4-((3-chloro-4-methylbenzyl)amino)-1-oxoisoindolin-2-yl)piperidine-2,6-dione], the IC50 in assay [1] was under 0.3 µM. The inhibition at 0.1 µM in the assay with TNF-α was under 50%.

As for `Cc1ccc(CNc2cccc3c2CN(C2CCC(=O)NC2=O)C3=O)cc1F` (centres unmarked) [Compound A353, 3-(4-((3-fluoro-4-methylbenzyl)amino)-1-oxoisoindolin-2-yl)piperidine-2,6-dione], the IC50 in assay [1] is under 0.3 µM. In addition, in the assay with TNF-α, the inhibition at 0.1 µM was under 50%.

As to `COc1ccc(CNc2cccc3c2CN(C2CCC(=O)NC2=O)C3=O)cc1Cl` (centres unmarked) [Compound A354, 3-(4-((3-chloro-4-methoxybenzyl)amino)-1-oxoisoindolin-2-yl)piperidine-2,6-dione], the IC50 in assay [1] was under 0.3 µM. The inhibition at 0.1 µM with TNF-α was under 50%.

Regarding `COc1cc(CNc2cccc3c2CN(C2CCC(=O)NC2=O)C3=O)cc(OC)c1` (centres unmarked) [Compound A355, 3-(4-((3,5-dimethoxybenzyl)amino)-1-oxoisoindolin-2-yl)piperidine-2,6-dione], the IC50 in assay [1] is at least 0.3 µM. In addition, the inhibition at 0.1 µM in the assay on TNF-α is under 50%.

On to `O=C1CCC(N2Cc3c(NCc4cccc(O)c4F)cccc3C2=O)C(=O)N1` (centres unmarked) [Compound A359, 3-(4-((2-fluoro-3-hydroxybenzyl)amino)-1-oxoisoindolin-2-yl)piperidine-2,6-dione], for which the IC50 in assay [1] was under 0.3 µM. Further, the inhibition at 0.1 µM in the assay with TNF-α is at least 50%.

With `N#Cc1cccc(CNc2cccc3c2CN(C2CCC(=O)NC2=O)C3=O)c1F` (centres unmarked) [Compound A360, 3-(((2-(2,6-dioxopiperidin-3-yl)-1-oxoisoindolin-4-yl)amino)methyl)-2-fluorobenzonitrile], the IC50 in assay [1] is under 0.3 µM. Also, the inhibition at 0.1 µM in the assay with TNF-α is under 50%.

As for `NC(=O)c1cccc(CNc2cccc3c2CN(C2CCC(=O)NC2=O)C3=O)c1F` (centres unmarked) [Compound A361, 3-(((2-(2,6-Dioxopiperidin-3-yl)-1-oxoisoindolin-4-yl)amino)methyl)-2-fluorobenzamide], the IC50 in assay [1] was under 0.3 µM. In addition, the inhibition at 0.1 µM in the assay on TNF-α was at least 50%.

On to `CNC(=O)c1cccc(CNc2cccc3c2CN(C2CCC(=O)NC2=O)C3=O)c1F` (centres unmarked) [Compound A362, 3-(((2-(2,6-Dioxopiperidin-3-yl)-1-oxoisoindolin-4-yl)amino)methyl)-2-fluoro-N-methylbenzamide], for which the IC50 in assay [1] was at least 0.3 µM. Besides, in the assay with TNF-α, the inhibition at 0.1 µM is under 50%.

Turning to `CN(C)CCOc1ccc(F)c(CNc2cccc3c2CN(C2CCC(=O)NC2=O)C3=O)c1` (centres unmarked) [Compound A363, 3-(4-((5-(2-(Dimethylamino)ethoxy)-2-fluorobenzyl)amino)-1-oxoisoindolin-2-yl)piperidine-2,6-dione], in assay [1], the IC50 is at least 0.3 µM. Also, the inhibition at 0.1 µM in the assay with TNF-α was under 50%.

In the case of `O=C1CCC(N2Cc3c(NCc4cc(O)ccc4F)cccc3C2=O)C(=O)N1` (centres unmarked) [Compound A364, 3-(4-((2-fluoro-5-hydroxybenzyl)amino)-1-oxoisoindolin-2-yl)piperidine-2,6-dione], the IC50 in assay [1] was under 0.3 µM. In the assay on TNF-α, the inhibition at 0.1 µM is under 50%.

Broadly, the IC50 is the midpoint of a concentration-inhibition curve.

The values are drawn from patent US10017492B2 (KANGPU BIOPHARMACEUTICALS, LTD., priority 2014, dated 2018).
